Broadly, the IC50 is the midpoint of a concentration-inhibition curve. The low end stands for higher potency, the high end for lower potency.

Calls of active or inactive are those of the source. The rule behind the calls is not given here.

Data on 7 molecules can be found in ChEMBL document CHEMBL4610078, “Bioactive Azepine-Indole Alkaloids from Psychotria nemorosa” (J Nat Prod, 2020).

Assay [1] deals with T1, Amine oxidase [flavin-containing] A (Homo sapiens, UniProt P21397).
T1 sequence (P21397 whole entry): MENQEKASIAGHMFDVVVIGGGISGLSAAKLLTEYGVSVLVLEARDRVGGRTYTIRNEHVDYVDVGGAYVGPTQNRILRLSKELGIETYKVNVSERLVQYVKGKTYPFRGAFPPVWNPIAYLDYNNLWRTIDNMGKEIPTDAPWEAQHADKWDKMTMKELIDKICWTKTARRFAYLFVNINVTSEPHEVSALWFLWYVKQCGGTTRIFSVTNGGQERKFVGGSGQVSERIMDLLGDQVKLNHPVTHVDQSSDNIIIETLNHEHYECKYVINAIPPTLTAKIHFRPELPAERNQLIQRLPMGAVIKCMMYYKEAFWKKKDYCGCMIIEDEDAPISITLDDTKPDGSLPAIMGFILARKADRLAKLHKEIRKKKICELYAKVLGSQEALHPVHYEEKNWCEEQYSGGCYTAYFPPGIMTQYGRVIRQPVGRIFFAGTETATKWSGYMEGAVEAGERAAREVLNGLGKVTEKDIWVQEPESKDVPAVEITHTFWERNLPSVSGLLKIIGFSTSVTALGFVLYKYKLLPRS
Description: Inhibition of recombinant human MAO-A incubated for 30 mins by fluorescence-based method

In assay [2] the target is Acetylcholinesterase (Electrophorus electricus) (UniProt O42275). Kind of assay: Inhibition of electric eel AchE using acetylthiocholine as substrate at 10 uM measured for 6 mins by Ellman's method. Background: Ellman's reagent forms a yellow product with free thiols.
Acetylcholinesterase (Electrophorus electricus), sequence (O42275 24-633 limits assumed): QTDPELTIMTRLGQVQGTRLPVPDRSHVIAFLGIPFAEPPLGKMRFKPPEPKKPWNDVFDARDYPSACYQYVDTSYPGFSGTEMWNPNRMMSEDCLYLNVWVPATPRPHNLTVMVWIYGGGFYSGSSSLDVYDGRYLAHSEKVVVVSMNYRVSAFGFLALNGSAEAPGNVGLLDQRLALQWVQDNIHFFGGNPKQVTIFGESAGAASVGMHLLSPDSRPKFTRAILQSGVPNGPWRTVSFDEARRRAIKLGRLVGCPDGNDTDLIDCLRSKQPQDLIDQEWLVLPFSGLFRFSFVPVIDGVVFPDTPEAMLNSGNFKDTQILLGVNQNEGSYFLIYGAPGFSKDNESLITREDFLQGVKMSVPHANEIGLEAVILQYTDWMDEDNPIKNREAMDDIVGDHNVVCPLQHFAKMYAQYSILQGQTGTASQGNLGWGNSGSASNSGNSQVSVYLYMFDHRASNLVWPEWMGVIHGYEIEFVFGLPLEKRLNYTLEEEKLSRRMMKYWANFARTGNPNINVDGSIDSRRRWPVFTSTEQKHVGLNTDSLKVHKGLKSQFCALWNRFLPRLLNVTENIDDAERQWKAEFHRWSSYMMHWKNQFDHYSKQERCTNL
Assay [3] deals with Cholinesterase (Equus caballus) (UniProt P81908). Put plainly: Inhibition of equine serum BChE using (S)-butyrylthiocholine iodide as substrate at 10 uM measured for 6 mins by Ellman's method.
Cholinesterase (Equus caballus), sequence (P81908 whole entry): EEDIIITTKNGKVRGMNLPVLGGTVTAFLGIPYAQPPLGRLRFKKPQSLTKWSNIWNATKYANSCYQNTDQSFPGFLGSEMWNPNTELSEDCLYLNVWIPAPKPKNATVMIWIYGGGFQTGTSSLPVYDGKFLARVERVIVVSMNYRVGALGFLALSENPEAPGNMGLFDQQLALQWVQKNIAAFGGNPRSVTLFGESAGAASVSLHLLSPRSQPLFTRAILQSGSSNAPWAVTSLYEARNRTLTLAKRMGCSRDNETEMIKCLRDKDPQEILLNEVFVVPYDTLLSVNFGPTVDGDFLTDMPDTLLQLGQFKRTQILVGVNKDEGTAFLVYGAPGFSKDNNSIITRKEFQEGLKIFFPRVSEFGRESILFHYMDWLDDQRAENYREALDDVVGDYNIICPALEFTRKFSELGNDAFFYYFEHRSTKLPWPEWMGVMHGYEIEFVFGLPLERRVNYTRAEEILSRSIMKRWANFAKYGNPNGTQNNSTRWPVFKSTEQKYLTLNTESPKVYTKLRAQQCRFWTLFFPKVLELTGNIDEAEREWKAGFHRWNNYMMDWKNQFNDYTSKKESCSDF
Assay [4] has as its target T2, Amine oxidase [flavin-containing] B (Homo sapiens, UniProt P27338).
T2 sequence (P27338 whole entry): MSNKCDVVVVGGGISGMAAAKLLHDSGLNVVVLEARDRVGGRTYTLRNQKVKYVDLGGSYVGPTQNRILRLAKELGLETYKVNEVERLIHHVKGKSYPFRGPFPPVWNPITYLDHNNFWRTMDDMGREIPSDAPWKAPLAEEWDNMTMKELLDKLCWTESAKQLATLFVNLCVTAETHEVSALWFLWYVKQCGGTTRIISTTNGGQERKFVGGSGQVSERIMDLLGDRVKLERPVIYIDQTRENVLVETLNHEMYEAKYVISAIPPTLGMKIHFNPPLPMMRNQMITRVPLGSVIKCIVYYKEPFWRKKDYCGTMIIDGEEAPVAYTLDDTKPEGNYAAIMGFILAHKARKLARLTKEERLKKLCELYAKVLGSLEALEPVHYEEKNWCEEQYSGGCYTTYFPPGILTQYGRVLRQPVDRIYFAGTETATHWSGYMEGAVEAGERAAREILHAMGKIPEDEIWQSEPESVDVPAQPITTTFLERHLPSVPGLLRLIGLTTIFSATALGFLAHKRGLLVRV
As to conditions: 0.5 h, read-out: INH.
Description: Inhibition of recombinant human MAO-B at 10 uM incubated for 30 mins by fluorescence-based method

On to `C=C[C@H]1[C@H](O[C@@H]2O[C@H](COC(=O)/C=C/c3ccc(OC)c(OC)c3)[C@@H](O)[C@H](O)[C@H]2O)OC=C(C(=O)OC)[C@H]1C[C@H]1c2c(O)ccc3[nH]cc(c23)CCN1C`, for which the IC50 in assay [1] is > 10000 nM. For the same molecule, the inhibition result in assay [2] and in assay [3] was “inactive” each time.
Consider `C[N+]1([O-])CCc2c[nH]c3ccc(O)c(c23)C1` (configuration not stated), for which the midpoint of inhibition in assay [1], the IC50, lay at 1400 nM. In assay [2], the inhibition entry was “inactive”. Further, in assay [3], the inhibition was found to be 41%. Further, the inhibition at 10 µM in assay [4] amounted to 27%.
`C[N+]1=Cc2c(O)ccc3[nH]cc(c23)CC1` came in with a concentration for half-maximal inhibition (IC50) in assay [1] of 900 nM. The inhibition entry in assay [2] was “inactive”. In assay [3], this molecule gave an inhibition of 21%. For the same molecule, the inhibition at 10 µM in assay [4] amounted to 31%.
As to `C=C[C@H]1[C@H](O[C@@H]2O[C@H](CO)[C@@H](O)[C@H](O)[C@H]2O)OC=C(C(=O)OC)[C@H]1C[C@H]1c2c(O)ccc3[nH]cc(c23)CCN1C`, the IC50 in assay [1] is > 10000 nM. Moreover, the inhibition result in assay [2] and in assay [3] was “inactive” in each case.
In the case of `C=C[C@H]1[C@H](O[C@@H]2O[C@H](CO)[C@@H](O)[C@H](O)[C@H]2O)OC=C(C(=O)OC)[C@H]1C[C@@H]1c2c(O)ccc3[nH]cc(c23)CCN1C`, in assay [1], the IC50 was > 10000 nM. The inhibition entry in assay [2] and in assay [3] was “inactive” each time.
In turn, `CN1CCc2c[nH]c3ccc(O)c(c23)C1` had an IC50 in assay [1] of 1400 nM. Further, the inhibition result in assay [2] is “inactive”. Moreover, the inhibition in assay [3] was 18%. Further, the inhibition at 10 µM in assay [4] was 22%.
For the molecule `C#CCN(C)Cc1ccccc1` [PARGYLINE], the inhibition at 10 µM in assay [4] is 0.14%.
